Experimental data: EP4596561A1, “PHOSPHORUS-CONTAINING COMPOUND, PHARMACEUTICAL COMPOSITION AND USE THEREOF” (Suzhou Genhouse Bio Co., Ltd., priority 2022, dated 2024)
Read-outs that look alike come from different tables or passages of the source.

Experiments:
[1] = test system: YAP-TEAD transcription complex; test: YAP-TEAD reporter gene assay (dual luciferase, stably transfected 293T cells); type: cell-based; conditions: Homo sapiens, HEK-293T
Method: YAP-TEAD reporter gene The YAP-TEAD reporter gene assay was performed as follows. Firstly, the 8xGTIIC promoter sequence ([…] GTACTGTTGGTAAA) was constructed into a pGL4.20(luc2-Puro) plasmid, and the TK promoter ([…]) unrelated to the hippo pathway was constructed into a pGL4.78(hRlucCP/Hygro) plasmid, thereby constructing stably transfected 293T cells that can stably and continuously express the transcriptional activity of the YAP-TEAD transcription complex. After selection and identification of individual clones, the clones were grown and maintained in a DMEM medium containing 10% fetal bovine serum, penicillin-streptomycin solution, 1 µg/mL puromycin, and 150 µg/mL hygromycin. To perform reporter gene assays with the compounds to be tested, the well-growing cells described above were plated in a 384-well plate at a cell density of 3000 cells per well, with 90 µL per well. The periphery was sealed with an appropriate amount of PBS to prevent evaporation of water from the peripheral wells. Administration was performed on the next day after the cell plating. The test compounds were added at different concentration gradients, and three replicate wells were set for each concentration point. The compound concentration started at 5 µM and was diluted seven times with a 5-fold gradient. A corresponding negative control group treated with DMSO was also set up. After 24 h of drug treatment, the detection reagents were prepared first. The Dual-Lumi™ Firefly luciferase detection reagent and Dual-Lumi™ Renilla luciferase detection buffer were dissolved and brought to room temperature. […]. According to the amount of 100 µL of Dual-Lumi™ Renilla luciferase detection working solution required for the detection of each sample, an appropriate amount of Dual-Lumi™ Renilla luciferase detection working solution was prepared. […]. The cell culture plate was taken out and allowed to equilibrate at room temperature for 10 min (usually no more than 30 min). Then, 100 µL of Dual-Lumi™ Firefly luciferase detection reagent was added to each well of a 96-well plate (25 µL per well for the 384-well plate), and the mixture was mixed well. The mixture was then incubated at room temperature (about 25 °C) for 10 min to stabilize the luminescent signal, and then chemiluminescence was detected using a multimode microplate reader with a chemiluminescence detection function. Subsequently, the detection of Renilla luciferase began. Firstly, 100 µL of Dual-Lumi™ Renilla luciferase detection working solution was added to each well of a […] (25 µL per well for the 384-well plate), and the mixture was mixed well. The mixture was then incubated at room temperature (about 25 °C) for 10 min to stabilize the luminescent signal. Finally, chemiluminescence was detected using a multimode microplate reader with a chemiluminescence detection function. The obtained data were analyzed using GraphPad Prism 7.0 software. A sigmoidal dose-survival rate curve was plotted using a non-linear regression model, and the IC50 values were calculated.

[2] = test system: MSTO-211H (NF2 wide-type); test: Inhibition of cell proliferation (CellTiter-Lumi); type: cell-based; conditions: Homo sapiens, 72 h + another 72 h treatment
Method: (§1) NCI-H2052 (NF2 mutant), NCI-H226 (NF2 mutant), NCI-H2452 (NF2 wide-type), NCI-H28 (NF2 wide-type), and MSTO-211H (NF2 wide-type) cells were cultured in RPMI 1640 complete media.
(§2) The normally growing cells described above were digested with a trypsin cell-digesting solution, centrifuged, counted, and then plated in a 96-well plate at a density of 1000 cells per well. Administration was performed 24 h after the cell plating. Inhibitors at different concentration gradients were added at 10 µL per well, and three replicate wells were set for each concentration point. The starting concentration was 20 µM and diluted 8 times with a 4-fold gradient. A corresponding negative control group treated with 0.1% DMSO was also set up. After 72 h of drug treatment, the cell culture plate to be tested was taken out of the incubator. The culture medium in the 96-well plate was pipetted, and 190 µL of fresh RPMI 1640 complete medium was added. Another administration was performed, and the cells were cultured for another 72 h. The 96-well plate was taken out and allowed to equilibrate at room temperature for 10 min. The medium in the 96-well plate was pipetted, and 200 µL of CellTiter-Lumi™ luminescent cell viability detection solution (mixed with a medium in a ratio of 1:1) was added. After shaking for two minutes, the mixture was reacted at room temperature for 10 min. Then, 150 µL of liquid was pipetted from the transparent 96-well plate and transferred to a white 96-well plate for chemiluminescence reading. The background value was subtracted from the value for each well to calculate the cell survival rate. Survival rate (%) = […]. Sample is the chemiluminescence of the drug-treated group, and Vehicle is the […] of the DMSO control group. A sigmoidal dose-survival rate curve was plotted using a non-linear regression model in the GraphPad Prism 7.0 software, and the IC50 values or GI50 values were calculated.

[3] = test system: NCI-H2452 (NF2 wide-type); test: Inhibition of cell proliferation (CellTiter-Lumi); type: cell-based; conditions: Homo sapiens, 72 h + another 72 h treatment
Method: as §1
as §2, with “The medium in the 96-well plate was pipetted, and 200 µL of CellTiter-Lumi™ luminescent cell viability detection solution (mixed with a medium in a ratio of 1:1) was added.” left out

NCI-H28 (NF2 wide-type) = test: Inhibition of cell proliferation (CellTiter-Lumi); type: cell-based; conditions: Homo sapiens, 72 h + another 72 h treatment
Method: as §1
as §2, with “The medium in the 96-well plate was pipetted, and 200 µL of CellTiter-Lumi™ luminescent cell viability detection solution (mixed with a medium in a ratio of 1:1) was added.” left out

[4] = Stability test in liver microsomes; type: in vitro ADME, CD-1 mouse; conditions: mouse liver microsomes, 0.5 mg/mL, 1.0 µM substrate
Method: (§3) Phase I metabolic stability of the test compounds in liver microsomes of CD-1 mice, Sprague-Dawley rats, and humans was assessed.
(§4) The animal and human liver microsomes used in the test system were purchased from Xenotech, Corning, or other qualified suppliers and stored in a freezer at a temperature below -60 °C prior to use. The information of the animal and human liver microsomes used was as follows:
(§5) The test samples and the reference compounds were separately incubated with animal and human liver microsomes at 37±1 °C for a period of incubation time of up to 60 min. The samples were taken out at the indicated time points, and the reaction was stopped with acetonitrile or another organic solvent containing an internal standard. After centrifugation, the resulting supernatants were assayed by the liquid chromatography-tandem mass spectrometry (LC-MS/MS) method.
(§6) Microsomes of each species were diluted into a 2× working solution with a 100 mM potassium phosphate buffer. […]
(§7) Incubation was performed in a 96-well plate. Eight incubation plates were prepared and designated T0, T5, T15, T30, T45, T60, Blank60, and NCF60, respectively. The first 6 plates corresponded to reaction time points of 0 min, 5 min, 15 min, 30 min, 45 min, and 60 min, respectively. No test sample or reference compound was added to the Blank60 plate, and samples were taken after 60 min of incubation. In the NCF60 plate, incubation was performed for 60 min using the potassium phosphate buffer instead of the NADPH regeneration system solution. Three replicates were made for samples in all conditions.
(§8) The microsomes and the test sample or reference compound were mixed, and then the incubation plates Blank60, T5, T15, T30, T45, and T60 except for T0 and NCF60 were placed in a 37 °C water bath for pre-incubation for about 10 min. In the incubation plate T0, a stop solution was first added, followed by the addition of the NADPH regeneration system working solution, and 98 µL of the potassium phosphate buffer was added to each sample well of the incubation plate NCF60 to initiate the reaction. After the pre-incubation of the incubation plates Blank60, T5, T15, T30, T45, and T60 was completed, 98 µL of the NADPH regeneration system working solution was added to each sample well to initiate the reaction. The reaction temperature was 37±1 °C, the final volume of the reaction was 200 µL, and the reaction system included 0.5 mg/mL microsomes, 1.0 µM substrate, 1 mM NADP, 6 mM ISO, and 1 unit/mL IDH.
(§9) At 5 min, 15 min, 30 min, 45 min, and 60 min, a cold stop solution containing an internal standard was added to the reaction plate to stop the reaction.
(§10) All the reaction plates after the reaction was stopped were shaken well and centrifuged at 3220× g at 4 °C for 20 min. After the supernatant was diluted at a certain ratio, LC-MS/MS analysis was performed.
(§11) Sample analysis was performed by the liquid chromatography-tandem mass spectrometry (LC-MS/MS) method without standard curves and quality control samples. Semi-quantitative determination was performed according to the ratio of the analyte peak area to the internal standard peak area. The retention times of the analyte and internal standard, the chromatogram acquisition, and chromatogram integration were processed using the Analyst software (Sciex, Framingham, Massachusetts, USA).
(§12) According to the well stir model, the hepatic intrinsic clearance and hepatic clearance can be converted through the following formula. CL(liver) = (CLint(liver)×Qh)/(CLint(liver)+Qh) [formula]

[5] = Stability test in liver microsomes; type: in vitro ADME; conditions: Human liver microsomes, 0.5 mg/mL, 1.0 µM substrate
Method: as §3, §4, §5, §6, §7, §8, §9, §10, §11, §12

[6] = Pharmacokinetic test in mice (low dose); type: in vivo, Balb/c mice; conditions: mouse, in vivo, mice; for AUC(0-t): read-out: AUClast; for half-life: read-out: T1/2 (converted)
Method: The compounds of the present disclosure were administered to Balb/c mice by single intravenous injection and oral gavage, and the plasma of the mice at each time point was collected. The concentration of the compounds to be tested in BALB/C plasma was detected using the LC-MS/MS analysis method, and pharmacokinetic analysis was performed.
The mixture was vortexed, shaken, and ultrasonicated. The remaining volume of 25% sulfobutylether-β-cyclodextrin (sterilized) was added to prepare the final concentration solution or suspension.
Intravenous injection formulations will be directly administered in animal experiments without filtration. The IV drug preparation vials were disinfected in an infrared sterilization cabinet one day in advance.
Intravenous injection: Administration was performed via the tail vein. After the needle was inserted, the syringe was slowly […].
Gavage: Gavage needle and syringe of an appropriate type were selected. The gavage needle was inserted from the root of the tongue into the esophagus until it reached near the cardia of the stomach, then the drug formulation was injected, and the gavage needle was withdrawn. When disposable plastic gavage needles were used, one needle was used for each group.
At each time point, 60 µL of whole blood was collected from the submandibular vein or tail vein (except for the IV group). The blood sample was added to a pre-cooled anticoagulant blood collection tube containing anticoagulant EDTA-K2 (1 µL, 15% EDTA-K2 solution), placed on wet ice, and centrifuged (3000 g, 4 °C, 10 min) within 1 h. The plasma was immediately collected after centrifugation, transferred to an EP tube, and stored at -90 °C to -60 °C.
Plasma concentration detection: A developed LC-MS/MS method was used to detect the compounds in plasma.
The plasma concentration-time data were analyzed using a non-compartmental model in the Phoenix® WinNonlin® (Version 8.2, Pharsight, Mountain View, CA).

[7] = Stability test in liver microsomes; type: in vitro ADME, SD rat; conditions: rat liver microsomes, 0.5 mg/mL, 1.0 µM substrate
Method: as §3, §4, §5, §6, §7, §8, §9, §10, §11, §12

[8] = 293T reporter cells, 24 h of drug treatment, read-out: IC50

| IC50 [1, 8] [µM] | IC50 [3] [µM] | IC50 (NCI-H28 (NF2 wide-type)) [µM] | SMILES | IC50 [2] [µM] | also measured |
| --- | --- | --- | --- | --- | --- |
| 0.344 | > 20 | > 5 | Cn1cnc(-c2cc(P(C)(C)=O)ccc2Nc2ccc(C(F)(F)F)cn2)c1 [Example 13] | > 20 |  |
|  |  |  | Cn1cc2c3cc(P(C)(C)=O)ccc3n(-c3ccc(C(F)(F)F)cc3)c2n1 [Example 16] |  | half-life at 1 µM [4]: > 2.42 h; IC50 ([1]; 24 h): 0.0318 µM; half-life at 1 µM [5]: > 2.42 h; MRT ([6]; IV 2 mg/kg): 3.6 h; AUC(0-t) ([6]; IV 2 mg/kg): 5.44 µM·h; clearance ([6]; IV 2 mg/kg, read-out: Cl (converted)): 0.8 L/h/kg; half-life ([6]; IV 2 mg/kg): 2.7 h; MRT ([6]; PO 10 mg/kg): 5.3 h; bioavailability ([6]; PO 10 mg/kg vs IV 2 mg/kg, read-out: F%): 206%; AUC(0-t) ([6]; PO 10 mg/kg): 63.5 µM·h; Cmax ([6]; PO 10 mg/kg, read-out: Cmax): 7.17 µM; half-life ([6]; PO 10 mg/kg): 3.1 h; half-life at 1 µM [7]: > 2.42 h |
|  | > 1.25 | > 20 | CP(C)(=O)c1cnc(Nc2ccc(C(F)(F)F)cc2)c(-n2cccn2)c1 [Example 18] | > 1.25 |  |
|  | > 5 | > 5 | CP(C)(=O)c1ccc2c(c1)c1nccnc1n2-c1ccc(C(F)(F)F)cc1 [Example 19] | 0.628 |  |
| 0.439 |  | > 20 | CP(C)(=O)c1cnc(Nc2ccc(C(F)(F)F)cc2)c(-n2cc(C(F)(F)F)cn2)c1 [Example 20] | > 1.25 |  |
